Experimental data reported in patent US8278037B2, “N-acetylgalactosamine transferases and nucleic acids encoding the same” (National Institute of Advanced Industrial Science and …, priority 2002, dated 2012).

Tests used:
Type in all cases: biochemical
[1] = target: T1, NGalNAc-T1 (Homo sapiens, UniProt Q76KP1); test: Requirements of divalent cations in the activity
T1 sequence (Q76KP1 62-1039): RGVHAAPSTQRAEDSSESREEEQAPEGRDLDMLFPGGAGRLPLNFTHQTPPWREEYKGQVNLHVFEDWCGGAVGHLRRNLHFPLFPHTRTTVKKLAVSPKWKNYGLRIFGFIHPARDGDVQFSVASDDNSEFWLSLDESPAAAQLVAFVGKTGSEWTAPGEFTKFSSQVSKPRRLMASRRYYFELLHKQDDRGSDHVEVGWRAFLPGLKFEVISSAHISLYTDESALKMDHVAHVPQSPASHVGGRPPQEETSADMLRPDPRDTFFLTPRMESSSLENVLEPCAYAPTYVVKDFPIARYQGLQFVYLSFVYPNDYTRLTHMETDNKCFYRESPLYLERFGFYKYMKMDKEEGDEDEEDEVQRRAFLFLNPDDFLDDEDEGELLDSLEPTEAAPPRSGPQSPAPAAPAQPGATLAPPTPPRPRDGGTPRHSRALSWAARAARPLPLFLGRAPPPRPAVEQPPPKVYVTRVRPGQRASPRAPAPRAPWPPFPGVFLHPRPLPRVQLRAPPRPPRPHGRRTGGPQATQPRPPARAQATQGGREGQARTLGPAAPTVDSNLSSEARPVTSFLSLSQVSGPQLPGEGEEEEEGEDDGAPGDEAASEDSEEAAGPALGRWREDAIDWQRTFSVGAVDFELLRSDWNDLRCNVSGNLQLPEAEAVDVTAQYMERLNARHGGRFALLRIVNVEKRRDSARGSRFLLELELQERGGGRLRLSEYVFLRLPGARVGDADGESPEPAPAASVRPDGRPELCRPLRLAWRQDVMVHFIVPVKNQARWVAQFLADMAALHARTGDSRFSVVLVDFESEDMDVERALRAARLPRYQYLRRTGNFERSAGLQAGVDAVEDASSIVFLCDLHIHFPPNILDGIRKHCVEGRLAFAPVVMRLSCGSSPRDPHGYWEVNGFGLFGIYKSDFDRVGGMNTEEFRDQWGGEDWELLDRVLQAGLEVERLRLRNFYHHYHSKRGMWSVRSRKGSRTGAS
Text: (§1) In addition, the value (263.21 dpm) of MES (pH 6.75) was adopted as a blank value in the case of a non-enzyme. Further, when pH of HEPES buffer was 7.4 for NGalNAc-T1 and 6.75 for NGalNAc-T2, the highest value was shown. […] Hereinafter, MES (pH 6.5) was used in each of experiments.
(§2) Generally, glycosyl transferases require frequently divalent cations. The activity of each enzyme was studied by adding various divalent cations. Consequently, the high values were represented when Mn^2+ in NGalNAc-T1, and Mg^2+, Mn^2+ and Co^2+ in NGalNAc-T2 were added (see Table 5). […] From the above results, it was explained that both enzymes require divalent cations.

[2] = target: T2, NGalNAc-T2 (Homo sapiens, UniProt Q6L9W6, K411R); test: Requirements of divalent cations in the activity
Text: as §1, §2

[3] = target: T1, NGalNAc-T1; test: Search for acceptor substrates, each acceptor by itself; details: acceptor 10 nmol/20 μl by itself
Description: (§3) The acceptor substrates were prepared so that each of Gal-α-pNp, Gal-β-oNp, GalNAc-α-Bz, GalNAc-β-pNp, GlcNAc-α-pNp, GlcNAc-β-pNp, Glc-α-pNp, Glc-β-pNp, GlcA-β-pNp, Fuc-α-pNp, Man-α-pNp (thereinbefore, CALBIOCHEM Co.), Xyl-α-pNp, Xyl-β-pNp (thereinbefore, SIGMA Co.) was included in 2.5 nmol/20 μl. Further, the solutions of various donor substrates (UDP-GalNAc, UDP-GlcNAc, UDP-Gal, GDP-Man, UDP-GlcA, UDP-Xyl and GDP-Fuc, thereinbefore, SIGMA Co.) are shown in Table 3.
(§4) All of reaction times were 16 hours. After reaction, non-reactive acceptor substrates with radioactivity were removed with SepPack C18 column (Waters CO.), and radioactivity from donor substrates integrated into acceptor substrates was determined with a liquid scintillation counter.
(§5) Further, in order to investigate acceptors, reactions were performed using each acceptor (10 nmol/20 μl) by itself. As a result, significant radioactivity was detected in the case of GlcNAc-β-pNp (NGalNAc-T1: 256.26 dpm, NGalNAc-T2: 1221.22 dpm). Based on the above results, it was explained that both of NGalNAc-T1 and NGalNAc-T2 are glycosyl transferases capable of transferring GalNAc to GlcNAc-T.

[4] = target: T2, NGalNAc-T2; test: as above; details: acceptor 10 nmol/20 μl by itself
Description: as §3, §4, §5

[5] = target: T1, NGalNAc-T1; test: Assay for acceptor substrates of glycosyl-transferase activities (GalNAc-T assay, HPLC); details: Table 6, O-glycan type acceptors 500 μM; GlcNAcβ-Bz = 100
Description: (§6) For the reaction of GalNAc-T assay, 50 mM MES buffer (pH 6.5) containing 0.1% triton X-100, 1 mM UDP-GalNAc, 10 mM MnCl2 and 500 μM each acceptor substrate was used. A 10 μl of enzyme solution for 20 μl of each reaction mixture were added and incubated at 37° C. for various periods. After the incubation the mixture was filtrated with Ultrafree-MC column (Millipore, Bedford, Mass.), and 10 μl aliquot was subjected to reversed-phase high performance liquid chromatography (HPLC) on an ODS-80Ts QA column (4.6×250 mm; Tosoh, Tokyo, Japan). A 0.1% TFA/H2O with 12% acetonitrile was used as a running solution. An ultraviolet spectrophotometer (absorbance at 210 nm), SPD-10AVP (Shimazu, Kyoto, Japan) was used for detection of the peaks. When the pyridyl amino-labeled oligosaccharides were utilized as acceptor substrates, 50 nM substrates were added into the reaction mixtures. For the analyses of the products derived from pyridyl amino labeled oligosaccharides, 100 mM acetic acid/triethylamine (pH4.0) was used as a running solution and the products were eluted with a 30-70% gradient of 1% 1-butanol in running solution at a flow rate of 1.0 ml/min at 55° C.
(§7) To investigate the specificity for acceptor substrates, N- and O-glycans containing GlcNAc on their non-reducing termini were utilized.

[6] = target: T2, NGalNAc-T2; test: as above; details: Table 6, O-glycan type acceptors 500 μM; GlcNAcβ-Bz = 100
Description: as §6, §7

[7] = target: T1, NGalNAc-T1; test: Search for donor substrates, radioactive glycosyltransferase assay; details: mixed mono-saccharide acceptor substrates, 16 hours
Description: (§8) 15 μg of pFLAG-NGalNAc-T1 or pFLAG-NGalNAc-T2 was induced into 2×10^6 of COS-1, cells which were cultured overnight in DMEM (Dulbecco's modified Eagle's medium) including 10% FCS (fetal calf serum), using Lipofectamine 2000 (Invitrogen Co.) as a protocol provided by the same company. A supernatant of 48-72 hours was collected. The supernatant was mixed with NaN3 (0.05%), NaCl (150 mM), CaCl2 (2 mM) and an anti-M1 resin (Sigma Co.) (50 μl), and the mixture was stirred overnight at 4° C. The solution of reaction mixture was centrifuged (3000 rpm, 5 min, 4° C.) to collect a pellet. The pellet was combined with 900 μl of 2 mM CaCl2/TBS and re-centrifuged (2000 rpm, 5 min, 4° C.), after which the pellet was suspended in 200 μl of 1 mM CaCl2/TBS to give a sample for assaying activity (NGalNAc-T1 or NGalNAc-T2 enzyme solution).
(§9) A search for a donor substrate of the enzyme of the present invention was performed on various mono-saccharide acceptor substrates, using […] of enzyme solution and various acceptor substrates.
as §3, §4

[8] = target: T2, NGalNAc-T2; test: as above; details: mixed mono-saccharide acceptor substrates, 16 hours
Description: as §8, §9, §3, §4

[9] = divalent cation etc. added, MES (pH 6.5)
[10] = divalent cation etc. added, MES (pH 6.5), blank 263.21 subtracted

Structure (SMILES)	Incorporation of radioactivity (A) [1, 9] [dpm]	(A) − (B) [1, 10] [dpm]	Incorporation of radioactivity (A) [2, 9] [dpm]	(A) − (B) [2, 10] [dpm]	also measured
[Ca+2].[Cl-].[Cl-] [CaCl2]	230.78	−32.43	217.83	−45.38	
O=S(=O)([O-])[O-].[Cd+2] [CdSO4]	203.39	−59.82	217.92	−45.29	
[Cl-].[Cl-].[Co+2] [CoCl2]					(A) − (B) ([1]; pH 6.5): −22.30 dpm; Incorporation of radioactivity (A) ([1]; pH 6.5): 240.91 dpm; enzyme activity on adding divalent cation, in words [2]: high values; (A) − (B) ([2]; pH 6.5): 867.42 dpm; Incorporation of radioactivity (A) ([2]; pH 6.5): 1130.63 dpm
[Cl][Cu][Cl] [CuCl2]	278.77	15.56	218.35	−44.86	
O=C(O)CN(CCN(CC(=O)O)CC(=O)O)CC(=O)O [EDTA]	242.38	−20.83	235.28	−27.93	
CC(=O)N[C@H]1[C@H](Oc2ccc([N+](=O)[O-])cc2)O[C@H](CO)[C@@H](O)[C@@H]1O [GlcNAc-β-pNp]					radioactivity detected [3]: 256.26 dpm; radioactivity detected [4]: 1221.22 dpm
CC(=O)NC1C(OC2C(O)C(CO)OC(Oc3ccc([N+](=O)[O-])cc3)C2NC(C)=O)OC(CO)C(O)C1O (centres unmarked) [GlcNAcβ1-3GalNAcα-pNp]					Relative activity (%) [5]: 20.0%; Relative activity (%) [6]: 32.3%
CC(=O)N[C@H]1[C@H](OC[C@H]2O[C@H](Oc3ccc([N+](=O)[O-])cc3)[C@H](NC(C)=O)[C@@H](O[C@@H]3O[C@H](CO)[C@H](O)[C@H](O)[C@H]3O)[C@H]2O)O[C@H](CO)[C@@H](O)[C@@H]1O [GlcNAcβ1-6(Galβ1-3)GalNAcα-pNp]					Relative activity (%) [5]: 15.2%; Relative activity (%) [6]: 11.4%
CC(=O)N[C@H]1[C@@H](Oc2ccc([N+](=O)[O-])cc2)O[C@H](CO[C@@H]2O[C@H](CO)[C@@H](O)[C@H](O)[C@H]2NC(C)=O)[C@H](O)[C@@H]1O [GlcNAcβ1-6GalNAcα-pNp]					Relative activity (%) [5]: 190.7%; Relative activity (%) [6]: 220.4%
CC(=O)N[C@H]1[C@H](OCc2ccccc2)O[C@H](CO)[C@@H](O)[C@@H]1O [GlcNAcβ-Bz]					Relative activity (%) [5]: 100%; Relative activity (%) [6]: 100%
[Cl-].[Cl-].[Mg+2] [MgCl2]	256.36	−6.85	3124.16	2860.95	enzyme activity on adding divalent cation, in words [2]: high values
[Cl][Mn][Cl] [MnCl2]	519.47	256.26	1484.43	1221.22	enzyme activity on adding divalent cation, in words [1]: high values; enzyme activity on adding divalent cation, in words [2]: high values
CC(=O)N[C@H]1[C@@H](OP(=O)(O)OP(=O)(O)OC[C@H]2O[C@@H](n3ccc(=O)[nH]c3=O)[C@H](O)[C@@H]2O)O[C@H](CO)[C@H](O)[C@@H]1O [UDP-GalNAc, UDP-N-acetyl-D-galactosamine]					activity with donor substrate (radioactivity integrated into acceptor substrates) [7]: highest activity; activity with donor substrate (radioactivity integrated into acceptor substrates) [8]: highest activity
O=C(O)[C@H]1O[C@H](OP(=O)(O)OP(=O)(O)OC[C@H]2O[C@@H](n3ccc(=O)[nH]c3=O)[C@H](O)[C@@H]2O)[C@H](O)[C@@H](O)[C@@H]1O [UDP-GlcA]					activity with donor substrate (radioactivity integrated into acceptor substrates) [7]: little background; activity with donor substrate (radioactivity integrated into acceptor substrates) [8]: little background
[Cl-].[Cl-].[Zn+2] [ZnCl2]	210.29	−52.92	187.59	−75.62	
